Laboratory results reported in patent US20070099983A1, “Aminocyclohexyl ether compounds and uses thereof” (Cardiome Pharma Corp., priority 2003, published 2007).
Counter-ions that a name gives are not always drawn.

Tested on: conscious rats
Assay: Determination of CNS toxicity: convulsions in conscious rats on increasing i.v. infusion
Format: in vivo
[1] = minimum i.v. infusion rate at which partial or complete convulsions are observed, conscious rats, maximum rate 64
[2] = total amount of drug infused when partial or complete convulsions are first observed, conscious rats

| SMILES | cum conv dose (rat, in vivo) [µmol/kg] | convulsion dose (rat, in vivo, iv) [µmol/kg/min] | convulsion dose [1] [µmol/kg/min] | cum conv dose [2] [µmol/kg] |
| --- | --- | --- | --- | --- |
| Cl.O=C1CCN(C2CCCC[C@@H]2OCCc2c(Cl)cccc2Cl)C1 (stereo partly drawn) [Compound 41, (1R,2R)/(1S,2S)-2-(3-ketopyrrolidinyl)-1-(2,6-dichlorophenethoxy) cyclohexane monohydrochloride] | 190 | 32 |  |  |
| COc1ccc(CCOC2CCCC[C@H]2N2CCN(C(=O)Cc3ccc(OC)c(OC)c3)CC2)cc1OC.Cl (stereo partly drawn) [Compound 22, 1-[(3,4-dimethoxyphenyl)acetyl]-4-{(1R,2R)/(1S,2S)-2-[2-(3,4-dimethoxyphenyl)-ethoxy]cyclohexyl}-piperazine hydrochloride] |  |  | 21.33 | 133 |
| COc1ccc(CCCCO[C@H]2CCCCC2N2CCOCC2)cc1OC.Cl (stereo partly drawn) [Compound 20, 4-{(1R,2R)/(1S,2S)-2-[4-(3,4-dimethoxyphenyl)-butoxy]cyclohexyl}morpholine hydrochloride] | 66.8 | 10.7 |  |  |
| Clc1ccc(CCO[C@H]2CCCCC2N2CCOCC2)cc1Cl (stereo partly drawn) [Compound 40, (1R,2R)/(1S,2S)-2-(4-morpholinyl)-1-(3,4-dichlorophenethoxy) cyclohexane] | 118 | 16 |  |  |
| COc1ccc(CCOC2CCCC[C@H]2N2CCC(F)C2)cc1OC.Cl (stereo partly drawn) [Compound 14, (3R)/(3S)-1-{(1R,2R)/(1S,2S)-2-[2-(3,4-dimethoxyphenyl)-ethoxy]cyclohexyl}-3-fluoropyrrolidine hydrochloride] | 63.33 | 10.67 |  |  |
| Cl.Clc1cccc(Cl)c1CCOC1CCCC[C@H]1N1CCSC1 (stereo partly drawn) [Compound 48, (1R,2R)/(1S,2S)-2-(3-thiazolidinyl)-1-(2,6-dichlorophenethoxy) cyclohexane monohydrochloride] | 331 | 43 |  |  |
| Brc1ccccc1CCO[C@H]1CCCCC1N1CCOCC1 (stereo partly drawn) [Compound 39, (1R,2R)/(1S,2S)-[2-(4-morpholinyl)-1-(2-bromophenethoxy)]-cyclohexane] | 125 | 16 |  |  |
| COc1ccc(CCO[C@H]2CCCCC2N2CC[C@H](O)C2)cc1OC.Cl (stereo partly drawn) [Compound 5, (1R,2R)/(1S,2S)-2-[(3S)-Hydroxypyrrolidinyl]-1-(3,4-dimethoxyphenethoxy)-cyclohexane monohydrochloride] | 438 | 64 |  |  |
| COc1ccc(CCO[C@@H]2CCCC[C@H]2N2CC[C@H](O)C2)cc1OC.Cl [Compound 6, (1R,2R)-2-[(3S)-Hydroxypyrrolidinyl]-1-(3,4-dimethoxyphenethoxy) cyclohexane monohydrochloride] | 472.24 | 64 |  |  |
| COc1ccc(CCO[C@H]2CCCCC2N2CCC3(C2)OCCO3)cc1OC.Cl (stereo partly drawn) [Compound 9, 7-{(1R,2R)/(1S,2S)-2-[2-(3,4-dimethoxyphenyl)-ethoxy]cyclohexyl}-1,4-dioxa-7-azaspiro[4.4]nonane hydrochloride] |  |  | 16 | 91.33 |
| COc1ccc(CCO[C@H]2CCCCC2N2CCCC2)cc1OC.Cl (stereo partly drawn) [Compound 10, 1-{(1R,2R)/(1S,2S)-2-[2-(3,4-dimethoxyphenyl)-ethoxy]cyclohexyl}-pyrrolidine hydrochloride] | 118 | 21.33 |  |  |
| COc1ccc(CCO[C@H]2CCCC[C@@H]2N2CC[C@@H](O)C2)cc1OC.Cl [Compound 2, (1S,2S)-2-[(3R)-Hydroxypyrrolidinyl]-1-(3,4-dimethoxyphenethoxy)cyclohexane monohydrochloride] | 500.67 | 64 |  |  |
| Cl.OC1CCN(C2CCCC[C@@H]2OCCn2ccc3ccccc32)C1 (stereo partly drawn) [Compound 28, (3R)/(3S)-1-{(1R,2R)/(1S,2S)-2-[2-(1H-indol-1-yl)ethoxy]cyclohexyl}pyrrolidin-3-ol hydrochloride] | 113 | 16 |  |  |
| COc1ccc(CCO[C@H]2CCCCC2N2CC[C@@H](OCc3ccccc3)C2)cc1OC.Cl (stereo partly drawn) [Compound 12, (3R)-3-benzyloxy-1-{(1R,2R)/(1S,2S)-2-[2-(3,4-dimethoxyphenyl)-ethoxy]cyclohexyl}-pyrrolidine hydrochloride] | 51.1 | 8 |  |  |
| CC(=O)OC1CCN([C@@H]2CCCCC2OCCc2cccc3ccccc23)C1.Cl (stereo partly drawn) [Compound 43, (1R,2R)/(1S,2S)-2-(3-acetoxypyrrolidinyl)-1-(1-naphthenethoxy)cyclo hexane monohydrochloride] | 65 | 8 |  |  |
| COc1ccc(CCO[C@H]2CCCCC2N2CC[C@H](OCc3ccccc3)C2)cc1OC.Cl (stereo partly drawn) [Compound 11, (3S)-3-benzyloxy-1-{(1R,2R)/(1S,2S)-2-[2-(3,4-dimethoxyphenyl)-ethoxy]cyclohexyl}-pyrrolidine hydrochloride] | 38.13 | 8 |  |  |
| COc1ccc(CCO[C@H]2CCCCC2N2CCOCC2)cc1OC (stereo partly drawn) [Compound 35, (1R,2R)/(1S,2S)-[2-(4-morpholinyl)-1-(3,4-dimethoxy-phenethoxy)]-cyclohexane] | 113 | 16 |  |  |

| SMILES | cum conv dose (rat, in vivo) [µmol/kg] | convulsion dose (rat, in vivo, iv) [µmol/kg/min] | convulsion dose [1] [µmol/kg/min] | cum conv dose [2] [µmol/kg] |
| --- | --- | --- | --- | --- |
| COc1ccc(CCO[C@H]2CCCCC2N2CCC[C@@H]2CO)cc1OC.Cl (stereo partly drawn) [Compound 15, {(2R)-1-{(1R,2R)/(1S,2S)-2-[2-(3,4-dimethoxyphenyl)-ethoxy]cyclohexyl}-pyrrolidin-2-yl}methanol hydrochloride] | 142.33 | 16 |  |  |
| Cl.Clc1cccc(Cl)c1COC1CCCC[C@H]1N1CCOCC1 (stereo partly drawn) [Compound 44, (1R,2R)/(1S,2S)-2-(4-morpholinyl)-1-[(2,6-dichlorophenyl)methoxy]cyclohexane monohydrochloride] | 97 | 16 |  |  |
| Cl.O[C@@H]1CCN(C2CCCC[C@@H]2OCCc2ccccc2C(F)(F)F)C1 (stereo partly drawn) [Compound 27, (3R)-1-{(1R,2R)/(1S,2S)-2-[2-(2-Trifluoromethyl-phenyl)ethoxy]-cyclohexyl}-pyrrolidin-3-ol hydrochloride] | 101.93 | 16 |  |  |
| COc1ccc(CCOC2CCCC[C@H]2N2CCOCC2)cc1OC.Cl (stereo partly drawn) [Compound 8, 4-{(1R,2R)/(1S,2S)-2-[2-(3,4-dimethoxy-phenyl)ethoxy]cyclohexyl}morpholine hydrochloride] | 113 | 16 |  |  |
| Brc1cccc(CCO[C@H]2CCCCC2N2CCOCC2)c1 (stereo partly drawn) [Compound 38, (1R,2R)/(1S,2S)-[2-(4-morpholinyl)-1-(3-bromophenethoxy)]-cyclohexane] | 131 | 16 |  |  |
| Cl.OC1CCN([C@@H]2CCCC[C@@H]2OCCc2cccc3ccccc23)C1 (stereo partly drawn) [Compound 25, (3R)/(3S)-1-{(1R,2S)/(1S,2R)-2-[2-(1-naphthyl)ethoxy]-cyclohexyl}-pyrrolidin-3-ol hydrochloride] | 70 | 16 |  |  |
| COc1ccc(CCOC2CCCC[C@H]2N2CCC(=O)C2)cc1OC.Cl (stereo partly drawn) [Compound 18, 1-{(1R,2R)/(1S,2S)-2-[2-(3,4-dimethoxyphenyl)-ethoxy]cyclohexyl}-pyrrolidin-3-one hydrochloride] | 235 | 32 |  |  |
| c1ccc2c(CCO[C@H]3CCCCC3N3CCOCC3)cccc2c1 (stereo partly drawn) [Compound 31, (1R,2R)/(1S,2S)-[2-(4-morpholinyl)-1-(1-naphthenethoxy)]-cyclohexane] | 93 | 16 |  |  |
| Cl.FC(F)(F)c1ccccc1CCO[C@H]1CCCC[C@H]1N1CCOCC1 (racemic) [Compound 42, (1R,2S)/(1S,2R)-2-(4-morpholinyl)-1-[(2-trifluoromethyl)-phenethoxy]-cyclohexane monohydrochloride] | 102 | 16 |  |  |
| COc1ccc(CCO[C@H]2CCCCC2N2CCC(O)C2)cc1OC (stereo partly drawn) [Compound 3, (1R,2R)/(1S,2S)-2-[(3R)/(3S)-Hydroxypyrrolidinyl]-1-(3,4-dimethoxyphenethoxy)-cyclohexane monohydrochloride] | 502 | 64 |  |  |
| c1ccc2cc(CCO[C@H]3CCCCC3N3CCOCC3)ccc2c1 (stereo partly drawn) [Compound 30, (1R,2R)/(1S,2S)-[2-(4-morpholinyl)-1-(2-naphthenethoxy)]-cyclohexane] | 85 | 13.3 |  |  |
| COc1ccc(CCO[C@H]2CCCCC2N2CC[C@@H](O)C2)cc1OC.Cl (stereo partly drawn) [Compound 4, (1R,2R)/(1S,2S)-2-[(3R)-Hydroxypyrrolidinyl]-1-(3,4-dimethoxyphenethoxy)-cyclohexane monohydrochloride] | 502 | 64 |  |  |
| Cl.OC1CCN(C2CCCC[C@@H]2OCCc2c(Cl)cccc2Cl)C1 (stereo partly drawn) [Compound 23, (3R)/(3S)-1-{(1R,2R)/(1S,2S)-2-[2-(2,6-dichlorophenyl)-ethoxy]cyclohexyl}-pyrrolidin-3-ol hydrochloride] | 65 | 8 |  |  |
| c1ccc2cc(OCCO[C@H]3CCCCC3N3CCOCC3)ccc2c1 (stereo partly drawn) [Compound 33, (1R,2R)/(1S,2S)-[2-(4-morpholinyl)-1-[2-(2-naphthoxy)ethoxy]]-cyclohexane] | 61.63 | 8 |  |  |
| Brc1ccc(OCCO[C@H]2CCCCC2N2CCOCC2)cc1 (stereo partly drawn) [Compound 34, (1R,2R)/(1S,2S)-[2-(4-morpholinyl)-1-[2-(4-bromophenoxy)-ethoxy]]cyclohexane] | 83 | 10.7 |  |  |
| Cl.OC1CCN(C2CCCC[C@@H]2OCCc2cccc3ccccc23)C1 (stereo partly drawn) [Compound 26, (3R)/(3S)-1-{(1R,2R)/(1S,2S)-2-[2-(1-naphthyl)ethoxy]-cyclohexyl}-pyrrolidin-3-ol hydrochloride] | 67.33 | 8 |  |  |
